Laboratory results from patent publication US20150307938A1, “METHOD TO IDENTIFY A NOVEL CLASS OF IMMUNOLOGIC ADJUVANTS” (Lancell, L.L.C., priority 2011, published 2015).

Tested on: skin
Experiment: Affymetrix microarray of skin, DBP-4 hr and analogs vs. untreated; gene selection by log-2 fold change, Wilcoxon, Kendall tau (Tables 8, 9)
Type: in vivo, mouse

Compound: CCOC(=O)c1ccccc1C(=O)OCC [DEP, diethylphthalate]
- Log2 Expression Level (gene #1 of Table 8): 5.52
- Log2 Expression Level (gene #2 of Table 8): 7.18
- Log2 Expression Level (gene #3 of Table 8): 8.98
- Log2 Expression Level (gene #4 of Table 8): 8.98
- Log2 Expression Level (gene #5 of Table 8): 6.10
- Log2 Expression Level (gene #6 of Table 8): 7.14
- Log2 Expression Level (gene #7 of Table 8): 6.55
- Log2 Expression Level (gene #8 of Table 8): 7.14
- Log2 Expression Level (gene #9 of Table 8): 7.14
- Log2 Expression Level (gene #10 of Table 8): 7.14
- Log2 Expression Level (gene #11 of Table 8): 6.55
- Log2 Expression Level (gene #12 of Table 8): 6.55
- Log2 Expression Level (gene #13 of Table 8): 6.55
- Log2 Expression Level (gene #14 of Table 8): 4.71
- Log2 Expression Level (gene #15 of Table 8): 4.71
- Log2 Expression Level (gene #16 of Table 8): 7.54
- Log2 Expression Level (gene #17 of Table 8): 9.32
- Log2 Expression Level (gene #18 of Table 8): 9.32
- Log2 Expression Level (gene #19 of Table 8): 8.41
- Log2 Expression Level (gene #20 of Table 8): 8.85
- Log2 Expression Level (gene #21 of Table 8): 8.77
- Log2 Expression Level (gene #22 of Table 8): 5.30
- Log2 Expression Level (gene #23 of Table 8): 6.03
- Log2 Expression Level (gene #24 of Table 8): 7.92
- Log2 Expression Level (gene #25 of Table 8): 7.92
- Log2 Expression Level (gene #26 of Table 8): 7.51
- Log2 Expression Level (gene #27 of Table 8): 7.51
- Log2 Expression Level (gene #28 of Table 8): 7.51
- Log2 Expression Level (gene #29 of Table 8): 5.79
- Log2 Expression Level (gene #30 of Table 8): 8.76
- Log2 Expression Level (gene #31 of Table 8): 8.76
- Log2 Expression Level (gene #32 of Table 8): 8.76
- Log2 Expression Level (gene #33 of Table 8): 5.34
- Log2 Expression Level (gene #34 of Table 8): 6.85
- Log2 Expression Level (gene #35 of Table 8): 6.85
- Log2 Expression Level (gene #36 of Table 8): 8.98
- Log2 Expression Level (gene #37 of Table 8): 8.98
- Log2 Expression Level (gene #38 of Table 8): 8.98
- Log2 Expression Level (gene #39 of Table 8): 7.28
- Log2 Expression Level (gene #40 of Table 8): 7.39
- Log2 Expression Level (gene #41 of Table 8): 7.54
- Log2 Expression Level (gene #42 of Table 8): 7.18
- Log2 Expression Level (gene #43 of Table 8): 7.18
- Log2 Expression Level (gene #44 of Table 8): 7.54
- Log2 Expression Level (gene #45 of Table 8): 7.18
- Log2 Expression Level (gene #46 of Table 8): 7.54
- Log2 Expression Level (gene #47 of Table 8): 8.45
- Log2 Expression Level (gene #48 of Table 8): 8.45
- Log2 Expression Level (gene #49 of Table 8): 8.45
- Log2 Expression Level (gene #50 of Table 8): 9.67
- Log2 Expression Level (gene #51 of Table 8): 7.95
- Log2 Expression Level (gene #52 of Table 8): 9.60
- Log2 Expression Level (gene #53 of Table 8): 8.70
- Log2 Expression Level (gene #54 of Table 8): 10.81
- Log2 Expression Level (gene #55 of Table 8): 6.30
- Log2 Expression Level (gene #56 of Table 8): 9.40
- Log2 Expression Level (gene #57 of Table 8): 8.76
- Log2 Expression Level (gene #58 of Table 8): 8.74
- Log2 Expression Level (gene #59 of Table 8): 7.93
- Log2 Expression Level (gene #60 of Table 8): 7.26
- Log2 Expression Level (gene #61 of Table 8): 12.58
- Log2 Expression Level (gene #62 of Table 8): 7.63
- Log2 Expression Level (gene #63 of Table 8): 10.52
- Log2 Expression Level (gene #64 of Table 8): 11.04
- Log2 Expression Level (gene #65 of Table 8): 6.97
- Log2 Expression Level (gene #66 of Table 8): 7.90
- Log2 Expression Level (gene #67 of Table 8): 4.52
- Log2 Expression Level (gene #68 of Table 8): 8.29
- Log2 Expression Level (gene #69 of Table 8): 5.13
- Log2 Expression Level (gene #70 of Table 8): 4.38
- Log2 Expression Level (gene #71 of Table 8): 7.95
- Log2 Expression Level (gene #72 of Table 8): 7.61
- Log2 Expression Level (gene #73 of Table 8): 6.09
- Log2 Expression Level (gene #74 of Table 8): 7.13
- Log2 Expression Level (gene #75 of Table 8): 8.41
- Log2 Expression Level (gene #76 of Table 8): 4.13
- Log2 Expression Level (gene #77 of Table 8): 9.75
- Log2 Expression Level (gene #78 of Table 8): 10.71
- Log2 Expression Level (gene #79 of Table 8): 6.51
- Log2 Expression Level (gene #80 of Table 8): 12.79
- Log2 Expression Level (gene #81 of Table 8): 5.69
- Log2 Expression Level (gene #82 of Table 8): 4.90
- Log2 Expression Level (gene #83 of Table 8): 7.87
- Log2 Expression Level (gene #84 of Table 8): 7.51
- Log2 Expression Level (gene #85 of Table 8): 4.61
- Log2 Expression Level (gene #86 of Table 8): 6.60
- Log2 Expression Level (gene #87 of Table 8): 7.01
- Log2 Expression Level (gene #88 of Table 8): 5.04
- Log2 Expression Level (gene #89 of Table 8): 5.15
- Log2 Expression Level (gene #90 of Table 8): 10.08
- Log2 Expression Level (gene #91 of Table 8): 6.27
- Log2 Expression Level (gene #92 of Table 8): 7.41
- Log2 Expression Level (gene #93 of Table 8): 8.87
- Log2 Expression Level (gene #94 of Table 8): 7.83
- Log2 Expression Level (gene #95 of Table 8): 5.79
- Log2 Expression Level (gene #96 of Table 8): 6.84
- Log2 Expression Level (gene #97 of Table 8): 5.27
- Log2 Expression Level (gene #98 of Table 8): 5.94
- Log2 Expression Level (gene #99 of Table 8): 9.42
- Log2 Expression Level (gene #100 of Table 8): 7.53

Compound: CCN(CC)C(=O)c1cccc(C)c1 [DEET, N,N-diethyl-toluamide]
- Log2 Expression Level (gene #1 of Table 8): 6.74
- Log2 Expression Level (gene #2 of Table 8): 6.44
- Log2 Expression Level (gene #3 of Table 8): 9.66
- Log2 Expression Level (gene #4 of Table 8): 9.66
- Log2 Expression Level (gene #5 of Table 8): 8.20
- Log2 Expression Level (gene #6 of Table 8): 7.42
- Log2 Expression Level (gene #7 of Table 8): 6.76
- Log2 Expression Level (gene #8 of Table 8): 7.42
- Log2 Expression Level (gene #9 of Table 8): 7.42
- Log2 Expression Level (gene #10 of Table 8): 7.42
- Log2 Expression Level (gene #11 of Table 8): 6.76
- Log2 Expression Level (gene #12 of Table 8): 6.76
- Log2 Expression Level (gene #13 of Table 8): 6.76
- Log2 Expression Level (gene #14 of Table 8): 5.31
- Log2 Expression Level (gene #15 of Table 8): 5.31
- Log2 Expression Level (gene #16 of Table 8): 7.68
- Log2 Expression Level (gene #17 of Table 8): 9.60
- Log2 Expression Level (gene #18 of Table 8): 9.60
- Log2 Expression Level (gene #19 of Table 8): 10.04
- Log2 Expression Level (gene #20 of Table 8): 11.87
- Log2 Expression Level (gene #21 of Table 8): 9.61
- Log2 Expression Level (gene #22 of Table 8): 8.47
- Log2 Expression Level (gene #23 of Table 8): 7.75
- Log2 Expression Level (gene #24 of Table 8): 8.21
- Log2 Expression Level (gene #25 of Table 8): 8.21
- Log2 Expression Level (gene #26 of Table 8): 8.83
- Log2 Expression Level (gene #27 of Table 8): 8.83
- Log2 Expression Level (gene #28 of Table 8): 8.83
- Log2 Expression Level (gene #29 of Table 8): 7.20
- Log2 Expression Level (gene #30 of Table 8): 9.06
- Log2 Expression Level (gene #31 of Table 8): 9.06
- Log2 Expression Level (gene #32 of Table 8): 9.06
- Log2 Expression Level (gene #33 of Table 8): 6.10
- Log2 Expression Level (gene #34 of Table 8): 7.43
- Log2 Expression Level (gene #35 of Table 8): 7.43
- Log2 Expression Level (gene #36 of Table 8): 9.66
- Log2 Expression Level (gene #37 of Table 8): 9.66
- Log2 Expression Level (gene #38 of Table 8): 9.66
- Log2 Expression Level (gene #39 of Table 8): 8.11
- Log2 Expression Level (gene #40 of Table 8): 8.22
- Log2 Expression Level (gene #41 of Table 8): 8.43
- Log2 Expression Level (gene #42 of Table 8): 7.97
- Log2 Expression Level (gene #43 of Table 8): 7.97
- Log2 Expression Level (gene #44 of Table 8): 8.43
- Log2 Expression Level (gene #45 of Table 8): 7.97
- Log2 Expression Level (gene #46 of Table 8): 8.43
- Log2 Expression Level (gene #47 of Table 8): 9.23
- Log2 Expression Level (gene #48 of Table 8): 9.23
- Log2 Expression Level (gene #49 of Table 8): 9.23
- Log2 Expression Level (gene #50 of Table 8): 10.17
- Log2 Expression Level (gene #51 of Table 8): 8.15
- Log2 Expression Level (gene #52 of Table 8): 10.64
- Log2 Expression Level (gene #53 of Table 8): 9.22
- Log2 Expression Level (gene #54 of Table 8): 10.01
- Log2 Expression Level (gene #55 of Table 8): 8.18
- Log2 Expression Level (gene #56 of Table 8): 10.41
- Log2 Expression Level (gene #57 of Table 8): 9.06
- Log2 Expression Level (gene #58 of Table 8): 9.46
- Log2 Expression Level (gene #59 of Table 8): 8.46
- Log2 Expression Level (gene #60 of Table 8): 7.24
- Log2 Expression Level (gene #61 of Table 8): 12.16
- Log2 Expression Level (gene #62 of Table 8): 8.52
- Log2 Expression Level (gene #63 of Table 8): 11.76
- Log2 Expression Level (gene #64 of Table 8): 11.40
- Log2 Expression Level (gene #65 of Table 8): 8.25
- Log2 Expression Level (gene #66 of Table 8): 9.07
- Log2 Expression Level (gene #67 of Table 8): 5.71
- Log2 Expression Level (gene #68 of Table 8): 10.87
- Log2 Expression Level (gene #69 of Table 8): 7.06
- Log2 Expression Level (gene #70 of Table 8): 5.72
- Log2 Expression Level (gene #71 of Table 8): 7.84
- Log2 Expression Level (gene #72 of Table 8): 9.65
- Log2 Expression Level (gene #73 of Table 8): 8.88
- Log2 Expression Level (gene #74 of Table 8): 7.48
- Log2 Expression Level (gene #75 of Table 8): 10.04
- Log2 Expression Level (gene #76 of Table 8): 5.76
- Log2 Expression Level (gene #77 of Table 8): 9.62
- Log2 Expression Level (gene #78 of Table 8): 9.85
- Log2 Expression Level (gene #79 of Table 8): 8.03
- Log2 Expression Level (gene #80 of Table 8): 13.18
- Log2 Expression Level (gene #81 of Table 8): 6.94
- Log2 Expression Level (gene #82 of Table 8): 6.28
- Log2 Expression Level (gene #83 of Table 8): 8.09
- Log2 Expression Level (gene #84 of Table 8): 8.70
- Log2 Expression Level (gene #85 of Table 8): 9.57
- Log2 Expression Level (gene #86 of Table 8): 8.02
- Log2 Expression Level (gene #87 of Table 8): 11.32
- Log2 Expression Level (gene #88 of Table 8): 10.03
- Log2 Expression Level (gene #89 of Table 8): 6.25
- Log2 Expression Level (gene #90 of Table 8): 11.13
- Log2 Expression Level (gene #91 of Table 8): 9.01
- Log2 Expression Level (gene #92 of Table 8): 7.14
- Log2 Expression Level (gene #93 of Table 8): 10.13
- Log2 Expression Level (gene #94 of Table 8): 9.19
- Log2 Expression Level (gene #95 of Table 8): 7.20
- Log2 Expression Level (gene #96 of Table 8): 9.02
- Log2 Expression Level (gene #97 of Table 8): 5.86
- Log2 Expression Level (gene #98 of Table 8): 6.82
- Log2 Expression Level (gene #99 of Table 8): 10.05
- Log2 Expression Level (gene #100 of Table 8): 8.86
